{
  "source": "patent US20160326142A1",
  "about": "“PYRAZOLE CARBOXAMIDE COMPOUNDS, COMPOSITIONS AND METHODS OF USE” (Genentech, Inc., priority 2012, published 2016)",
  "data": [
    {"molecular_target": "T1, ITK (Homo sapiens, UniProt Q08881)", "T1 construct": "purchased Invitrogen PV3875", "T1 sequence (Q08881 1-620)": "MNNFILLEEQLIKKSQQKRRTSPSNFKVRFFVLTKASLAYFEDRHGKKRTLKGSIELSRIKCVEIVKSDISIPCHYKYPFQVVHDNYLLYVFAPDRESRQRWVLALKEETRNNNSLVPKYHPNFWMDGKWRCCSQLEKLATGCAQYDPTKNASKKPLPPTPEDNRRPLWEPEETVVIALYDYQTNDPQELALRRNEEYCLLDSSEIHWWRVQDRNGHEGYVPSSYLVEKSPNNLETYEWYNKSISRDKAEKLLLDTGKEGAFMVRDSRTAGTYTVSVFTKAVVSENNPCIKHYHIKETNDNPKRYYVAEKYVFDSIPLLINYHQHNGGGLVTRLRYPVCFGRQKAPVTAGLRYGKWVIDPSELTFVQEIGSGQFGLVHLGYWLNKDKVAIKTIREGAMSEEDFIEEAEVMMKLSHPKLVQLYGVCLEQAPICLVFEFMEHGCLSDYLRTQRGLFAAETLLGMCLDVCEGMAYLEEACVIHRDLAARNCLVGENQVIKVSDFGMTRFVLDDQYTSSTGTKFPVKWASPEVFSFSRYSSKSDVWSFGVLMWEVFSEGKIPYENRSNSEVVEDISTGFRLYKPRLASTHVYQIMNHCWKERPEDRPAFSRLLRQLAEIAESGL", "assay": "ITK enzyme assay (Caliper or LCMS peptide phosphorylation)", "assay_type": "biochemical", "details": "purified ITK (Invitrogen PV3875), 20 μM ATP, Ki by Morrison's quadratic equation", "method_in_brief": "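Purified human ITK peptide phosphorylation, quenched with EDTA (50 mM final) for Caliper LabChip separation or TCA (5% v/v final) for UPLC-MS/MS MRM quantification. Ki derived via Morrison tight-binding equation, corrected for competitive inhibition using ATP concentration relative to Km,app.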", "units": {"Ki": "nM"}, "values": [
      {"compound": "CN1CCC(C(c2ccccc2)n2cc(NC(=O)c3n[nH]c4c3CCC(C)(C)C4)cn2)CC1", "note": "(single isomer, unassigned) [Example 43a, 6,6-dimethyl-N-(1-((1-methylpiperidin-4-yl)(phenyl)methyl)-1H-pyrazol-4-yl)-4,5,6,7-tetrahydro-1H-indazole-3-carboxamide]", "Ki": 0.2},
      {"compound": "CC1(C)CCc2c(C(=O)Nc3cnn(C(c4nccs4)C4CCS(=O)(=O)CC4)c3)n[nH]c2C1", "note": "(single isomer, unassigned) [Example 87a, N-(1-((1,1-dioxidotetrahydro-2H-thiopyran-4-yl)(thiazol-2-yl)methyl)-1H-pyrazol-4-yl)-6,6-dimethyl-4,5,6,7-tetrahydro-1H-indazole-3-carboxamide]", "Ki": 0.4},
      {"compound": "CC1(C)CCc2c(C(=O)Nc3cnn(C(c4ccccc4)C4CNC4)c3)n[nH]c2C1", "note": "(single isomer, unassigned) [Example 34b, N-(1-(azetidin-3-yl(phenyl)methyl)-1H-pyrazol-4-yl)-6,6-dimethyl-4,5,6,7-tetrahydro-1H-indazole-3-carboxamide]", "Ki": 0.7},
      {"compound": "CC1(C)CCc2c(C(=O)Nc3cnn(C(c4cccc(S(C)(=O)=O)c4)C4CCOC4)c3)n[nH]c2C1", "note": "(single isomer, unassigned) [Example 126a, 6,6-dimethyl-N-(1-((3-(methylsulfonyl)phenyl)(tetrahydrofuran-3-yl)methyl)-1H-pyrazol-4-yl)-4,5,6,7-tetrahydro-1H-indazole-3-carboxamide]", "Ki": 2},
      {"compound": "O=C(Nc1cnn(Cc2ccccc2)c1)c1n[nH]c2c1C1CC1CC2", "note": "(single isomer, unassigned) [Example 23a, N-(1-benzyl-1H-pyrazol-4-yl)-3,4,5,5a,6,6a-hexahydrocyclopropa[e]indazole-1-carboxamide]", "Ki": 24},
      {"compound": "CN1CC(C(c2ccccc2)n2cc(NC(=O)c3n[nH]c4c3CCC(C)(C)C4)cn2)C1", "note": "(single isomer, unassigned) [Example 38b, 6,6-dimethyl-N-(1-((1-methylazetidin-3-yl)(phenyl)methyl)-1H-pyrazol-4-yl)-4,5,6,7-tetrahydro-1H-indazole-3-carboxamide]", "Ki": 0.5},
      {"compound": "CCC(c1cccnc1)n1cc(NC(=O)c2n[nH]c3c2CCC(C)(C)C3)cn1", "note": "(single isomer, unassigned) [Example 54a, 6,6-dimethyl-N-(1-(1-(pyridin-3-yl)propyl)-1H-pyrazol-4-yl)-4,5,6,7-tetrahydro-1H-indazole-3-carboxamide]", "Ki": 1},
      {"compound": "CC1(C)CCc2c(C(=O)Nc3cnn(C(c4cccnc4)C4CCOCC4)c3)n[nH]c2C1", "note": "(single isomer, unassigned) [Example 88a, 6,6-dimethyl-N-(1-(pyridin-3-yl(tetrahydro-2H-pyran-4-yl)methyl)-1H-pyrazol-4-yl)-4,5,6,7-tetrahydro-1H-indazole-3-carboxamide]", "Ki": 0.1},
      {"compound": "O=C(Nc1cnn(Cc2ccccc2)c1)c1n[nH]c2c1CC1(COC1)C2", "note": "[Example 82, N-(1-benzyl-1H-pyrazol-4-yl)-4,6-dihydro-1H-spiro[cyclopenta[c]pyrazole-5,3′-oxetane]-3-c arboxamide]", "Ki": 61},
      {"compound": "Cn1cc(C(c2ccccc2)n2cc(NC(=O)c3n[nH]c4c3CC3CC3C4)cn2)cn1", "note": "(single isomer, unassigned) [Example 27d, N-(1-((1-methyl-1H-pyrazol-4-yl)(phenyl)methyl)-1H-pyrazol-4-yl)-1,4,4a,5,5a,6-hexahydro cyclopropa[f]indazole-3-carboxamide]", "Ki": 96},
      {"compound": "O=C(Nc1cnn(Cc2ccccc2)c1)c1n[nH]c2c1CCC1(CSC1)C2", "note": "[Example 118, N-(1-benzyl-1H-pyrazol-4-yl)-1,4,5,7-tetrahydrospiro[indazole-6,3′-thietane]-3-carboxamide]", "Ki": 34},
      {"compound": "CC1(C#N)CCc2c(C(=O)Nc3cnn(Cc4ccccc4)c3)n[nH]c2C1", "note": "(single isomer, unassigned) [Example 102b, N-(1-benzyl-1H-pyrazol-4-yl)-6-cyano-6-methyl-4,5,6,7-tetrahydro-1H-indazole-3-carboxamide]", "Ki": 10},
      {"compound": "CC12Cc3[nH]nc(C(=O)Nc4cnn(C(c5ccccc5)C5CCCCS5(=O)=O)c4)c3CC1C2", "note": "(single isomer, unassigned) [Example 143a, N-(1-((1,1-dioxidotetrahydro-2H-thiopyran-2-yl)(phenyl)methyl)-1H-pyrazol-4-yl)-5a-methyl-1,4,4a,5,5a,6-hexahydrocyclopropa[f]indazole-3-carboxamide]", "Ki": "< 0.1"},
      {"compound": "CN(C)CC(c1ccccc1)n1cc(NC(=O)c2n[nH]c3c2CC(C)(C)C3)cn1", "note": "(single isomer, unassigned) [Example 96a, N-(1-(2-(dimethylamino)-1-phenylethyl)-1H-pyrazol-4-yl)-5,5-dimethyl-1,4,5,6-tetrahydrocyclopenta[c]pyrazole-3-carboxamide]", "Ki": 57},
      {"compound": "CC12Cc3c(C(=O)Nc4cnn(C(c5ccccc5)C5CCS(=O)(=O)CC5)c4)n[nH]c3C1C2", "note": "(single isomer, unassigned) [Example 152d, N-(1-((1,1-dioxidotetrahydro-2H-thiopyran-4-yl)(phenyl)methyl)-1H-pyrazol-4-yl)-4a-methyl-4,4a,5,5a-tetrahydro-1H-cyclopropa[4,5]cyclopenta[1,2-c]pyrazole-3-carboxamide]", "Ki": 15},
      {"compound": "CC12Cc3[nH]nc(C(=O)Nc4cnn(C(c5ccccc5)C5CC[S+]([O-])CC5)c4)c3CC1C2", "note": "(single isomer, unassigned) [Example 120b, 5a-methyl-N-(1-((1-oxidotetrahydro-2H-thiopyran-4-yl)(phenyl)methyl)-1H-pyrazol-4-yl)-1,4,4a,5,5a,6-hexahydrocyclopropa[f]indazole-3-carboxamide]", "Ki": "< 0.1"},
      {"compound": "CC(c1cccnc1)n1cc(NC(=O)c2n[nH]c3c2CCC(C)(C)C3)cn1", "note": "(single isomer, unassigned) [Example 106a, 6,6-dimethyl-N-(1-(1-(pyridin-3-yl)ethyl)-1H-pyrazol-4-yl)-4,5,6,7-tetrahydro-1H-indazole-3-carboxamide]", "Ki": 3},
      {"compound": "CC(c1cncs1)n1cc(NC(=O)c2n[nH]c3c2CCC(C)(C)C3)cn1", "note": "(single isomer, unassigned) [Example 98a, 6,6-dimethyl-N-(1-(1-(thiazol-5-yl)ethyl)-1H-pyrazol-4-yl)-4,5,6,7-tetrahydro-1H-indazole-3-carboxamide]", "Ki": 8},
      {"compound": "C#CC1(C)CCc2c(C(=O)Nc3cnn(Cc4ccccc4)c3)n[nH]c2C1", "note": "(single isomer, unassigned) [Example 130a, N-(1-benzyl-1H-pyrazol-4-yl)-6-ethynyl-6-methyl-4,5,6,7-tetrahydro-1H-indazole-3-carboxamide]", "Ki": 25},
      {"compound": "CC1CC(C(c2ccccc2)n2cc(NC(=O)c3n[nH]c4c3CCC(C)(C)C4)cn2)CCS1(=O)=O", "note": "(single isomer, unassigned) [Example 139e, 6,6-dimethyl-N-(1-((2-methyl-1,1-dioxidotetrahydro-2H-thiopyran-4-yl)(phenyl)methyl)-1H-pyrazol-4-yl)-4,5,6,7-tetrahydro-1H-indazole-3-carboxamide]", "Ki": 1},
      {"compound": "CC(C1CCOCC1)n1cc(NC(=O)c2n[nH]c3c2CCC(C)(C)C3)cn1", "note": "(single isomer, unassigned) [Example 78b, 6,6-dimethyl-N-(1-(1-(tetrahydro-2H-pyran-4-yl)ethyl)-1H-pyrazol-4-yl)-4,5,6,7-tetrahydro-1H-indazole-3-carboxamide]", "Ki": 6}
    ]}
  ]
}
